Experimental data reported in US6649379B1, “Method and deregulated enzyme for threonine production” (priority 1987, dated 2003).

T1: homoserine dehydrogenase enzyme of C. glutamicum (Corynebacterium glutamicum, UniProt P08499)
T1 sequence (P08499 1-445): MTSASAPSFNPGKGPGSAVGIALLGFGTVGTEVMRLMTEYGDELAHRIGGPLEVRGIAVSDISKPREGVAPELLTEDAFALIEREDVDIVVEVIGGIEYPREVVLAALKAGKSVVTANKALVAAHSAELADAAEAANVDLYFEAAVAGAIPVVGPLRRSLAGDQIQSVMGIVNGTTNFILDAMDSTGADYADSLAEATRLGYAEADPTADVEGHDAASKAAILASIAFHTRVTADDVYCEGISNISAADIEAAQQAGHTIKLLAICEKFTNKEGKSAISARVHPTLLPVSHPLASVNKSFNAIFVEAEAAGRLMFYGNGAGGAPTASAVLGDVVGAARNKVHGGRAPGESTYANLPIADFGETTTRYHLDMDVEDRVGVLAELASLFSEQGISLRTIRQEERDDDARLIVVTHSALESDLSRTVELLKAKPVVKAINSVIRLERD

T2: homoserine dehydrogenase (Corynebacterium glutamicum, UniProt P08499)
T2 construct: Crude cell lysates for homoserine dehydrogenase assays were prepared from 500 ml MMCG C. glutamicum AS019 and R102 cultures; endogenous in cells; host or cells: C. glutamicum AS019 and AS019E12/pMF33 (chromosomal wild-type hom); R102 (chromosomal hom^dr); AS019E12/pJD4 (plasmid-borne hom^dr beside chromosomal wild-type hom)
T2 sequence (P08499 whole entry, looked up): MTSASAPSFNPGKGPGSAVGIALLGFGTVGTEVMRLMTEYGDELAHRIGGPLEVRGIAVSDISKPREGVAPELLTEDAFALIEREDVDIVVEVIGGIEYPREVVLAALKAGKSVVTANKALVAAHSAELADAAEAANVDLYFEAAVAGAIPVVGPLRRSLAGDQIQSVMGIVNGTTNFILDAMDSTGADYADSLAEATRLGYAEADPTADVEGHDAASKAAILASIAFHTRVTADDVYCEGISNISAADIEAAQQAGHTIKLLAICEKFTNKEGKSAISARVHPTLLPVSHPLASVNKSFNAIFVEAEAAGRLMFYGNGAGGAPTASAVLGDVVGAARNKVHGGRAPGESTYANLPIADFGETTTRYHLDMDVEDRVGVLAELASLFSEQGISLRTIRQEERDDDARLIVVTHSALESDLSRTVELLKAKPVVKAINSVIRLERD

B1: wild type: wild type C. glutamicum homoserine dehydrogenase (SEQ ID NO:2) (protein)
chain: MTSASAPSFNPGKGPGSAVGIALLGFGTVGTEVMRLMTEYGDELAHRIGGPLEVRGIAVSDISKPREGVAPELLTEDAFALIEREDVDIVVEVIGGIEYPREVVLAALKAGKSVVTANKALVAAHSAELADAAEAANVDLYFEAAVAGAIPVVGPLRRSLAGDQIQSVMGIVNGTTNFILDAMDSTGADYADSLAEATRLGYAEADPTADVEGHDAASKAAILASIAFHTRVTADDVYCEGISNISAADIEAAQQAGHTIKLLAICEKFTNKEGKSAISARVHPTLLPVSHPLASVNKSFNAIFVEAEAAGRLMFYGNGAGGAPTASAVLGDVVGAARNKVHGGRAPGESTYANLPIADFGETTTRYHLDMDVEDRVGVLAELASLFSEQGISLRTIRQEERDDDARLIVVTHSALESDLSRTVELLKAKPVVKAINSVIRLERD

What was measured:
[1] = target: T3, homoserine dehydrogenase (Corynebacterium glutamicum, UniProt P08499); experiment: Homoserine dehydrogenase activity in crude cell extracts (initial decrease in absorbance at 340 nm by NADPH); type: biochemical, C. glutamicum
T3 construct: Crude cell lysates for homoserine dehydrogenase assays were prepared from 500 ml MMCG C. glutamicum AS019 and R102 cultures; endogenous in cells; host or cells: C. glutamicum AS019 and AS019E12/pMF33 (chromosomal wild-type hom); R102 (chromosomal hom^dr); AS019E12/pJD4 (plasmid-borne hom^dr beside chromosomal wild-type hom)
Experimental: Verified pJD4/AS019EI2 transformants were selected for the presence of the plasmid by growth on kanamycin supplemented mediums. The activity of the homoserine dehydrogenase from crude cell extracts of these cultures was determined in the presence and absence of L-threonine. A host cell encoding wild type homoserine dehydrogenase would be inactivated in the presence of 10 mM L-threonine. […] Therefore, homoserine dehydrogenase activity in the presence of L-threonine was derived from the cloned hom^dr gene. The specific activity of the deregulated homoserine dehydrogenase is approximately the same as that reported for the C. glutamicum chromosomal hom gene (0.0450 μM ml^−1min^1) The cloned hom^dr gene product was functional even in the presence of 120 mM L-threonine.
One ml of the supernatant from an overnight 10 ml MMCG culture of an alpha-hydroxy-valerate tolerant C. glutamicum isolate was filter sterilized and added 1:10 to a fresh 10 ml MMCG medium. […] Growth of AS155 was determined by densitometry after a 24 hour incubation at 30° C. […] The activity of homoserine dehydrogenase in crude cell extracts of C. glutamicum R102 and AS019 in the presence of both threonine and alpha-hydroxy-valerate was measured. […] Homoserine dehydrogenase activity was assayed by determining the initial decrease in the absorbance at 340 nm by NADPH as described by Follettie et al., Mol. Microbiol. […]

[2] = target: T1, homoserine dehydrogenase enzyme of C. glutamicum; details: threonine inhibition of C. glutamicum homoserine dehydrogenase; read-out: inhibition rate constant (Ki); cited from earlier work
[3] = target: T2, homoserine dehydrogenase; set-up: specific activity reported for the C. glutamicum chromosomal hom gene: unit not given here; details: reported value, cited from earlier work

Molecule	effect of 10 mM L-threonine on wild type homoserine dehydrogenase [1]	Ki [2] [µM]	specific activity reported for the C. glutamicum chromosomal hom gene [3]	specific activity reported for wild type ([3]; wild type homoserine dehydrogenase) [μM ml^−1min^−1]
C[C@@H](O)[C@H](N)C(=O)O [L-threonine]	inactivate	160	–	–
B1	–	–	0.0450	0.0450
